How the values were obtained:
[1] = molecular target: recombinant human CD28 protein (extracellular domain, His-tagged) (Homo sapiens, UniProt P10747); assay: spectral shift; format: binding
[2] = molecular target: CD28:B7.1 (immobilized CD28 and biotinylated B7.1) (Homo sapiens, UniProt P10747); assay: competitive ELISA, chemiluminescent; format: binding
Sequence of CD28:B7.1 (immobilized CD28 and biotinylated B7.1) (P10747 19-152 limits assumed): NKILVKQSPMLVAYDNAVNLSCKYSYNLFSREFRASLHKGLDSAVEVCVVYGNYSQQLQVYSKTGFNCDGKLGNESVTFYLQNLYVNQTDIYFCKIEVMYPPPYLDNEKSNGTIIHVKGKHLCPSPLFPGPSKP

Sequence of recombinant human CD28 protein (extracellular domain, His-tagged) (P10747 19-152): as the sequence (P10747 19-152 limits assumed) above

| SMILES | Kd [1] [µM] | IC50 [2] [µM] |
| --- | --- | --- |
| COc1ccc(C2CC(C)N(CC(=O)NCC(F)(F)F)C2)cc1 (centres unmarked) [Z3889890124] | 49.5 ± 15.3 | – |
| NC(=O)c1ccc(N2CCN(C(=O)c3ncc4n3CCCC4)CC2)cc1 [Z2770993038] | 43.3 ± 16.4 | 32.9 ± 5.74 |
| CC(C)OC1CCCN(C(=O)c2ccc(-c3nn[nH]n3)s2)C1 (centres unmarked) [Z4390463985] | 45.8 ± 12.1 | 56.3 ± 11.2 |

— doi:10.1101/2025.07.21.666047v1 (biorxiv, 2025)
